For one experiment, the target named is T1, EGFR (T790M/L858R) (Homo sapiens, UniProt P00533, L858R/T790M).
T1 construct: GST; purchased Proqinase
In words: EGFR L858R/T790M enzyme inhibition assay (HTRF). It counts as biochemical. Particulars: 5 μM ATP, 60 min, read-out: EGFR_L858R T790M_IC50_nM. As to the method:
Example 2: EGFR L858R & Del19/T790M Assay Protocol (to Find the IC50 for the Compounds Using HTRF Method)
Reagents for Enzyme Assay:
• 1. Enzyme Assay Buffer: 60 mM HEPES (pH 7.4), 50 mM NaCl, 20 mM MgCl2, 5 mM MnCl2, filtered using 0.2 μm pore size, stored at 4° C. • Supplements (added fresh to the enzyme buffer): 1M DTT stock was made, 5% BSA stock and 0.1M Na3OV4 stored at 4° C. Enzyme assay buffer 50 mL, 1 M DTT 100 μL, 5% BSA 500 μL, 0.1 M Na3OV4 50 μL. • 2. GST-hEGFR (L858R), active: EGFR (T790M/L858R), active (Proqinase), 3.6 μM stock; 2.5 nM in final assay. • 3. Gastrin Precusor-Biotinylated: Gastrin precursor (Tyr87) biotinylated peptide, EEAY*GWM, Cell Signaling Tech 1310, Lot-7, Want final 0.5 μM in assay. • 4. ATP: 10 mM stock in 100 μL Enzyme assay buffer pH 7.4 prepared freshly, want 5 μM in final assay. • 5. Test compounds: Powders were dissolved in 100% DMSO and made up to a final stock concentration of 10 mM (volume in μL to add for 10 mM=mg powder X 10^5/MW). Final compound concentration in the assay plate started at 10 μM.
• 1. HTRF buffer: 50 mM Tris —HCl, pH-7.5, 100 mM NaCl, 0.1% BSA, 0.05% Tween20, 0.5 mM EDTA, filtered using 0.2 μm pore size, stored at 4° C. • Phycolink® Streptavidin-Allophycocyanin (SA-APC) Prozyme, Cat. #PJ25S, Lot #896 085, 2.06 mg/mL, APC concentration is 11.6 μM, streptavidin concentration is 15.5 μM. Want 12 nM final in assay (based on streptavidin concentration). • 2. (Europium) Eu-W1024 Anti-phosphotyrosine (PT-66) Antibody: Perkin Elmer (Product Number: AD0068), monoclonal IgG1 that recognizes phosphotyrosine peptide 100 μg/ml stock. Want 0.1 nM final in assay.
• 1. The compound dilution was made by TECAN as per the above scheme. • 2. 16 μL of diluted compound was added to the assay plate by using TECAN. • 3. 10 μL of enzyme mix was added to each well except mins. • 4. 20 μL of substrate and ATP mix were added into each well of the assay plate, manually. • 5. The plate was incubated on a laboratory shaker at room temperature for 60 min. • 6. Meanwhile, the HTRF mix was prepared and 75 μL was added to the HTRF plate. • 7. When the incubation was over, 10 μL of the reaction mixture was transferred to the HTRF assay plate and incubated on a laboratory shaker for 30 min at room temperature. • 8. The reading was taken in Pherastar (ext 337 nm, Em 665 & 620 nm). • 9. The results were analyzed using Graphpad prism after calculation of the z factor, signal window and % inhibition to get the IC50.

Experiment [1] deals with EGFR(D770_N771insSVD) expressing Ba/F3 stable cell line (Homo sapiens, UniProt P00533, DUP768-770, cells depend on it). Put plainly: Cellular proliferation (Alamar Blue) assay, EGFR D770_N771insSVD Ba/F3. Format: cell-based. The following applies: EGFR D770_N771insSVD Ba/F3, 72 hr, read-out: D770 IC50. A digest of the protocol:
(§1)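 Seventy-two-hour growth assay with 3-fold compound titration (final 10–0.0005 μM) and Alamar Blue fluorescence end point, ex 540/em 590 nm.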

The next experiment concerns A431 cells. In words: Cellular proliferation (Alamar Blue) assay, A431. It counts as cell-based. The following applies: Homo sapiens, A-431; A431 cells, 72 hr, Alamar Blue; read-out: A431 IC50. The essentials: as §1
The target in experiment [2] is EGFR (A767_dupASV) expressing Ba/F3 stable cell line (Homo sapiens, UniProt P00533, DUP767-769, cells depend on it). Put plainly: Cellular proliferation (Alamar Blue) assay, EGFR A767_dupASV Ba/F3. Format: cell-based. The following applies: EGFR A767_dupASV Ba/F3, 72 hr, read-out: A767 IC50. A digest of the protocol: as §1
Sequence of EGFR (A767_dupASV) expressing Ba/F3 stable cell line (P00533 with tags, fused parts or gaps DUP767-769): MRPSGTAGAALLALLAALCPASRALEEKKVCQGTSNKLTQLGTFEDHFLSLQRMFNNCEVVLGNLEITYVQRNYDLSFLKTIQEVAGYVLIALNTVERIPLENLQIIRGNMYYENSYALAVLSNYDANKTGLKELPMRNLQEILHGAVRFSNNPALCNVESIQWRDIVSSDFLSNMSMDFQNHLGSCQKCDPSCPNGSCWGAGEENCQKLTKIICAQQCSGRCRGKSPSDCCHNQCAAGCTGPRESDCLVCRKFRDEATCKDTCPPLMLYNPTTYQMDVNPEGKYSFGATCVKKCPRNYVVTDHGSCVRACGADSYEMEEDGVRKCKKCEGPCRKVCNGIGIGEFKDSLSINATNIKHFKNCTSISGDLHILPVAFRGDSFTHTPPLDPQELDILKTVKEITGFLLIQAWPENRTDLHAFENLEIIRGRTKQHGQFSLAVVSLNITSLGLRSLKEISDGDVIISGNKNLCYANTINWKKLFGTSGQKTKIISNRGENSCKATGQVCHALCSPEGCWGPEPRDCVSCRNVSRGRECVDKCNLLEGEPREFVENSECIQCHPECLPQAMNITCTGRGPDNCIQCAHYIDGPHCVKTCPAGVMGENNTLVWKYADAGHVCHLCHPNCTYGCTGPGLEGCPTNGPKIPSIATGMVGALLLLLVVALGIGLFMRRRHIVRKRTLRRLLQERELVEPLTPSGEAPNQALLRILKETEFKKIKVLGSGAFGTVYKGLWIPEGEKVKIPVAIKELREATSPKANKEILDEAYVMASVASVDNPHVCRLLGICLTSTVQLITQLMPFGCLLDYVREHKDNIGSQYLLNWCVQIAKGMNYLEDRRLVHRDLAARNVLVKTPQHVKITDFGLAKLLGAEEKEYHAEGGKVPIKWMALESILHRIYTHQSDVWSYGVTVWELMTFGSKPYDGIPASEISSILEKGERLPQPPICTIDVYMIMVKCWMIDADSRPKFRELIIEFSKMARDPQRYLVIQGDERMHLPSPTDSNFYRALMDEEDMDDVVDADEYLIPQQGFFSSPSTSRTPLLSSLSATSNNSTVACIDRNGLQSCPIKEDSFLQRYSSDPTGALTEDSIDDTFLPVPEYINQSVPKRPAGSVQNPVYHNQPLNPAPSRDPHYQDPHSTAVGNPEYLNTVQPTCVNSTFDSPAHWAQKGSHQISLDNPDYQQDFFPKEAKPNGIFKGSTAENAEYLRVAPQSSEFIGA
The test system of experiment [3] is H1975 cells (L858R_T790M mutant). In words: H1975 proliferation assay. Particulars: Homo sapiens, NCI-H1975; read-out: Proliferation_Assay H1975 cells-EC50_nM L858R_T790M_mutant. Format: cell-based.

Sequence of EGFR(D770_N771insSVD) expressing Ba/F3 stable cell line (P00533 with tags, fused parts or gaps DUP768-770): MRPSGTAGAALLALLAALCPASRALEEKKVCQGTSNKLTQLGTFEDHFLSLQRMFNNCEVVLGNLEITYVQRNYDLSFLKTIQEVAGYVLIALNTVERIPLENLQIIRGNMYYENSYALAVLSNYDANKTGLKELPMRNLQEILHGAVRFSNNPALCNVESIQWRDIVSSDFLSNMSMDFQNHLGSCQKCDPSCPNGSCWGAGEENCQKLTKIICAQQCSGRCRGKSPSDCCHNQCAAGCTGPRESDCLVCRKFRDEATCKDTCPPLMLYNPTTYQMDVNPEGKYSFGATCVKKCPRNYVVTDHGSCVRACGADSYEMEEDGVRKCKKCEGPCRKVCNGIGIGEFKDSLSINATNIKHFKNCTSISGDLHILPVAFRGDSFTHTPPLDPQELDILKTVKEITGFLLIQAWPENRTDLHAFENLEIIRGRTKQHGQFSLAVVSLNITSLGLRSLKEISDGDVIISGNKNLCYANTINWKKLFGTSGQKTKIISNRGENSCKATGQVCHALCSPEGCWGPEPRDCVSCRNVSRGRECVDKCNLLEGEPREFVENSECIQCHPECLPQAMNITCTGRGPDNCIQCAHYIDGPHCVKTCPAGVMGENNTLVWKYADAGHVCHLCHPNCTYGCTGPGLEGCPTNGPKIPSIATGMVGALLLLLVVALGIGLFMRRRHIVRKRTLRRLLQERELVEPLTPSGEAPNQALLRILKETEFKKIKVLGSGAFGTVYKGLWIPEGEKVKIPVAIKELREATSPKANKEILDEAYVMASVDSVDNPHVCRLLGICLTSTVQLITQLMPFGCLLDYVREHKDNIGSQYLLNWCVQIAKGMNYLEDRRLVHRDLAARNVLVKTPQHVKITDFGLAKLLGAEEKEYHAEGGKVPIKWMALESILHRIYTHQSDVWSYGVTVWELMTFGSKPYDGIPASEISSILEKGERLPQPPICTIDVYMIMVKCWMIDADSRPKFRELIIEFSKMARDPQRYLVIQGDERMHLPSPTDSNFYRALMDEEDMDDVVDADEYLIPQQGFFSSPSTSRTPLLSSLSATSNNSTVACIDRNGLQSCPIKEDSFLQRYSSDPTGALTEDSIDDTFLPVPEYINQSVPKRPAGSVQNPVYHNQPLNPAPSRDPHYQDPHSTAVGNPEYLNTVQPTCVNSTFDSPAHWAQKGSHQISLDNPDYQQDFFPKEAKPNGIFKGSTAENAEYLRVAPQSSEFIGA
T1 sequence (P00533 25-1210 T790M/L858R): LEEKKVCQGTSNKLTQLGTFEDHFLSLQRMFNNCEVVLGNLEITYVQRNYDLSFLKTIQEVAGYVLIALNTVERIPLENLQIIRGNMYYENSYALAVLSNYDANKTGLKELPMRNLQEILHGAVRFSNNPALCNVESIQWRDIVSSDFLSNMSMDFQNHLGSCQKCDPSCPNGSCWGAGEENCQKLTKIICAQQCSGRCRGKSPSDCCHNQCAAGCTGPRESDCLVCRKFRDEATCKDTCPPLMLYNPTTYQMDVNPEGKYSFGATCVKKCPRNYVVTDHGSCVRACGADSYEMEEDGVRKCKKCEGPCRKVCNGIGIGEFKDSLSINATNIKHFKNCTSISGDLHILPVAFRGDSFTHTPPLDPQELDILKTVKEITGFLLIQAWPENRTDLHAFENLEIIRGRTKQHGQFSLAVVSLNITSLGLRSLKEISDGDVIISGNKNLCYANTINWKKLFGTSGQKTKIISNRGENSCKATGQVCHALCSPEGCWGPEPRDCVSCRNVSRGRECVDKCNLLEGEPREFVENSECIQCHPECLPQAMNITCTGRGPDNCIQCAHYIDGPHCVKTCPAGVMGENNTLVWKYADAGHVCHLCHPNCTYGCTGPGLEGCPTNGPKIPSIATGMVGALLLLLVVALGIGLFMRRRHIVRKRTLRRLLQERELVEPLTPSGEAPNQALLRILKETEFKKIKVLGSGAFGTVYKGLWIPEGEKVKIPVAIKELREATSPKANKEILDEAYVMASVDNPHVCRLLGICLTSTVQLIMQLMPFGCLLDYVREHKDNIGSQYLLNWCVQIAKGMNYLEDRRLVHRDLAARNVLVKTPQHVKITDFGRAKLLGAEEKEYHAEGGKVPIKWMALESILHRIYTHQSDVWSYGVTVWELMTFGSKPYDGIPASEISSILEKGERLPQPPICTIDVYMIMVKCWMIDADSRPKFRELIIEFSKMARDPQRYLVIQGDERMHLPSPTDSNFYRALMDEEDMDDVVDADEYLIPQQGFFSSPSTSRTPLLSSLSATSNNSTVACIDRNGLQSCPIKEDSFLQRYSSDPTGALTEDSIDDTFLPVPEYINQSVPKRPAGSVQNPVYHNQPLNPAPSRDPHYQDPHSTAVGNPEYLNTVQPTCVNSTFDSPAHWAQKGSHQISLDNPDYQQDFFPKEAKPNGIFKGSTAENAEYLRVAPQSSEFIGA

In the case of `C=CC(=O)Nc1cccc(N2C(=O)N(Cc3ccc(F)cc3)Cc3cnc(Nc4cnn(C)c4)nc32)c1` [Compound 3, N-(3-(3-(4-fluorobenzyl)-7-((1-methyl-1H-pyrazol-4-yl)amino)-2-oxo-3,4-dihydropyrimido[4,5-d]pyrimidin-1(2H)-yl)phenyl)acrylamide], the figures for the IC50 at EGFR (T790M/L858R) and in the experiment on A431 cells were 13 nM and 676 nM, respectively. The GI50 in experiment [1] was determined as 131 nM; in experiment [2] it was 184 nM. In addition, in experiment [3], the EC50 was 40.9 nM.
The like results for `C=CC(=O)Nc1cccc(N2C(=O)N(Cc3ccccc3)Cc3cnc(Nc4cnn(C)c4C)nc32)c1` [Compound 4, N-(3-(3-benzyl-7-((1,5-dimethyl-1H-pyrazol-4-yl)amino)-2-oxo-3,4-dihydropyrimido[4,5-d]pyrimidin-1(2H)-yl)phenyl)acrylamide] were, in that order, 2.4 nM, 78 nM, 40 nM, 57 nM and 4.9 nM.
The like results for `Cc1nn(CC(F)(F)F)cc1Nc1ncc2c(n1)N(c1cccc(NC(=O)/C=C/CN(C)C)c1)C(=O)N(Cc1ccccc1)C2` [Compound 8, (E)-N-(3-(3-benzyl-7-((3-methyl-1-(2,2,2-trifluoroethyl)-1H-pyrazol-4-yl)amino)-2-oxo-3,4-dihydropyrimido[4,5-d]pyrimidin-1(2H)-yl)phenyl)-4-(dimethylamino)but-2-enamide] were, in that order, 9 nM, 580 nM, 108 nM, 103 nM and 9.2 nM.
The matching figures for `Cc1c(Nc2ncc3c(n2)N(c2cccc(NC(=O)/C=C/CN(C)C)c2)C(=O)N(Cc2ccccc2)C3)cnn1C` [Compound 11, (E)-N-(3-(3-benzyl-7-((1,5-dimethyl-1H-pyrazol-4-yl)amino)-2-oxo-3,4-dihydropyrimido[4,5-d]pyrimidin-1(2H)-yl)phenyl)-4-(dimethylamino)but-2-enamide]: 2 nM, 1710 nM, 2430 nM, 1150 nM and 9.6 nM.
Take `CN(C)C/C=C/C(=O)Nc1cccc(N2C(=O)N(Cc3ccccc3)Cc3cnc(Nc4cnn(CC(F)(F)F)c4)nc32)c1` [Compound 12, (E)-N-(3-(3-benzyl-2-oxo-7-((1-(2,2,2-trifluoroethyl)-1H-pyrazol-4-yl)amino)-3,4-dihydropyrimido[4,5-d]pyrimidin-1(2H)-yl)phenyl)-4-(dimethylamino)but-2-enamide]: the IC50 on EGFR (T790M/L858R) was found to be 3 nM; in the experiment on A431 cells, 1240 nM. Also, the GI50 turned out to be 134 nM in experiment [1] and 106 nM in experiment [2]. Besides, the EC50 in experiment [3] came to 6.6 nM.
The matching figures for `C=CC(=O)Nc1cccc(N2C(=O)N(Cc3ccccc3)Cc3cnc(Nc4cnn(CCO)c4)nc32)c1` [Compound 13, N-(3-(3-benzyl-7-((1-(2-hydroxyethyl)-1H-pyrazol-4-yl)amino)-2-oxo-3,4-dihydropyrimido[4,5-d]pyrimidin-1(2H)-yl)phenyl)acrylamide]: 1 nM, 59 nM, 42 nM, 45 nM and 1.5 nM.
Take `CN(C)C/C=C/C(=O)Nc1cccc(N2C(=O)N(Cc3ccccc3)Cc3cnc(Nc4cnn(CCO)c4)nc32)c1` [Compound 14, (E)-N-(3-(3-benzyl-7-((1-(2-hydroxyethyl)-1H-pyrazol-4-yl)amino)-2-oxo-3,4-dihydropyrimido[4,5-d]pyrimidin-1(2H)-yl)phenyl)-4-(dimethylamino)but-2-enamide]: the IC50 is 5 nM on EGFR (T790M/L858R) and 6080 nM in the experiment on A431 cells. The GI50 came to 2920 nM in experiment [1] and 2570 nM in experiment [2]. In experiment [3], the EC50 came to 37.8 nM.
The like results for `COCCn1cc(Nc2ncc3c(n2)N(c2cccc(NC(=O)/C=C/CN(C)C)c2)C(=O)N(Cc2ccccc2)C3)cn1` [Compound 16, (E)-N-(3-(3-benzyl-7-((1-(2-methoxyethyl)-1H-pyrazol-4-yl)amino)-2-oxo-3,4-dihydropyrimido[4,5-d]pyrimidin-1(2H)-yl)phenyl)-4-(dimethylamino)but-2-enamide] were, in that order, 1 nM, 371 nM, 2310 nM, 1170 nM and 15.7 nM.
The matching figures for `CN(C)C/C=C/C(=O)Nc1cccc(N2C(=O)N(c3ccc(F)cc3)Cc3cnc(Nc4cnn(C)c4)nc32)c1` [Compound 18, (E)-4-(dimethylamino)-N-(3-(3-(4-fluorophenyl)-7-((1-methyl-1H-pyrazol-4-yl)amino)-2-oxo-3,4-dihydropyrimido[4,5-d]pyrimidin-1(2H)-yl)phenyl)but-2-enamide]: 2.5 nM, 332 nM, 1100 nM, 421 nM and 34 nM.
The matching figures for `CN(C)C/C=C/C(=O)N(C)c1cccc(N2C(=O)N(Cc3ccccc3)Cc3cnc(Nc4cnn(C)c4)nc32)c1` [Compound 21, (E)-N-(3-(3-benzyl-7-((1-methyl-1H-pyrazol-4-yl)amino)-2-oxo-3,4-dihydropyrimido[4,5-d]pyrimidin-1(2H)-yl)phenyl)-4-(dimethylamino)-N-methylbut-2-enamide]: 45 nM, 2080 nM, 3350 nM, 2810 nM and 83.9 nM.
On to `Cc1cc(Nc2ncc3c(n2)N(c2cccc(NC(=O)/C=C/CN(C)C)c2)C(=O)N(Cc2ccccc2)C3)sn1` [Compound 22, (E)-N-(3-(3-benzyl-7-((3-methylisothiazol-5-yl)amino)-2-oxo-3,4-dihydropyrimido[4,5-d]pyrimidin-1(2H)-yl)phenyl)-4-(dimethylamino)but-2-enamide], for which the IC50 on EGFR (T790M/L858R) worked out at 7 nM; with A431 cells, 46 nM. Besides, the GI50 in experiment [1] was 278 nM; in experiment [2], 121 nM. In addition, the EC50 in experiment [3] is 10 nM.
The like results for `Cc1nn(C)cc1Nc1ncc2c(n1)N(c1cccc(NC(=O)/C=C/CN(C)C)c1)C(=O)N(Cc1ccccc1)C2` [Compound 23, (E)-N-(3-(3-benzyl-7-((1,3-dimethyl-1H-pyrazol-4-yl)amino)-2-oxo-3,4-dihydropyrimido[4,5-d]pyrimidin-1(2H)-yl)phenyl)-4-(dimethylamino)but-2-enamide] were, in that order, 3 nM, 18 nM, 299 nM, 124 nM and 6.4 nM.
